Experiments:
[1] = biological target: T1, recombinant human JAK1 kinase domain protein (Residues 854-1154) (Homo sapiens, UniProt P23458); test: JAK1 biochemical assay (LabChip mobility shift, Ki); settings: read-out: Biochem JAK1 Ki
T1 construct: human JAK1 kinase domain protein (Residues 854-1154); purchased Proteros Biostructures GmbH (Martinsried, Germany); host or cells: insect cells

[2] = test system: IL-13-stimulated STAT6 phosphorylation in human lung bronchial epithelial BEAS-2B cell line; test: P-STAT6 BEAS-2B + IL-13 cell assay; assay type: cell-based; settings: Homo sapiens, BEAS-2B, BEAS2B cells, IL13 stimulation; read-out: Cellular JAK1 PSTAT6 BEAS2B + IL13
How it was run: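 BEAS-2B cells grown 48 h at 37 °C, pre-treated 1 h with compound (10-point 1:2 dilution curve), then stimulated 15 min with human recombinant IL-13 (250 ng/mL stock). Lysate P-STAT6 (Tyr641) read by MSD sandwich ELISA with total-STAT6 capture; IC50 from four-parameter logistic fit of control-normalised data.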

[3] = biological target: Recombinant human JAK2 kinase domain protein (Residues 812-1132) (Homo sapiens, UniProt O60674); test: JAK2 biochemical assay (LabChip mobility shift, Ki); settings: Biochem JAK2 Ki
Sequence of Recombinant human JAK2 kinase domain protein (Residues 812-1132) (O60674 812-1132): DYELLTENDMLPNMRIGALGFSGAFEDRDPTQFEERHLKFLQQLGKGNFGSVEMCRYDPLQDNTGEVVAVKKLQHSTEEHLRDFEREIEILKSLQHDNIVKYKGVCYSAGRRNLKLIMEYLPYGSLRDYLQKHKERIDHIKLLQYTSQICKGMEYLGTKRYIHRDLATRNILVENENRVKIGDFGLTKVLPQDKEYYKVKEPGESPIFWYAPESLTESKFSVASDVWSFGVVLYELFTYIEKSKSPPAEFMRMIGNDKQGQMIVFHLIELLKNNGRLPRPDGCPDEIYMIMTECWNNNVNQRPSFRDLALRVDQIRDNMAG
Method: The in vitro biochemical assays quantify JAK-catalyzed phosphorylation of a synthetic peptide, as detected using a LabChip® EZ Reader II microfluidic mobility shift instrument (PerkinElmer; Waltham, MA). […] Y-1B is fluorescently labeled on the N-terminus with 5-FAM (5-carboxyfluorescein) and contains a single tyrosine residue (Y) that can be phosphorylated by JAK activity. The substrate peptide stock is prepared in DMSO at 5 mM. […] In each titration experiment, test compound was tested in duplicate at each of the twelve concentrations. Blank reactions contained ATP, peptide, and DMSO, but no JAK or test compound, whereas uninhibited control reactions contained ATP, peptide, JAK, and DMSO, but no test compound.
Peptide plus ATP mixture (24 μL) was added to 1 μL of test compound in DMSO (or DMSO alone). The reactions were initiated by adding 25 μL of JAK enzyme to the inhibitor/peptide/ATP mixture before thoroughly mixing the resultant solution. Reactions were incubated at room temperature (22° C.-23° C.) in a final volume of 50 μL per well in 384-well plates. After a 30-minute incubation, the reactions were stopped by adding 25 μL of 150 mM ethylenediaminetetraacetic acid in 100 mM HEPES buffer (pH 7.2) containing 0.015% Brij 35 to each well.
In each reaction, the residual Y-1B substrate and the phospho-peptide product generated were separated using the EZ Reader II instrument. Electrophoretic separation of molecules of product from molecules of substrate was achieved using downstream and upstream voltages of −500 and −2600 V, respectively, at an operating pressure of −1.3 psi.
The extent (or percent) of conversion of substrate to product was calculated from the corresponding peak heights in the electropherogram using HTS Well Analyzer software, Version 5.2 (PerkinElmer), and the following equation (Equation 1): conversion=[P÷(S+P)]×100 Equation 1% where S and P represent the peak heights of the substrate and product, respectively. After any baseline signal from blank wells containing no JAK was subtracted from the signal of all test wells, the % conversion data were converted to fractional activity as shown in Equation 2, where vi and vo are the % conversion in the presence and absence of test compound, respectively.

T1 sequence (P23458 854-1154): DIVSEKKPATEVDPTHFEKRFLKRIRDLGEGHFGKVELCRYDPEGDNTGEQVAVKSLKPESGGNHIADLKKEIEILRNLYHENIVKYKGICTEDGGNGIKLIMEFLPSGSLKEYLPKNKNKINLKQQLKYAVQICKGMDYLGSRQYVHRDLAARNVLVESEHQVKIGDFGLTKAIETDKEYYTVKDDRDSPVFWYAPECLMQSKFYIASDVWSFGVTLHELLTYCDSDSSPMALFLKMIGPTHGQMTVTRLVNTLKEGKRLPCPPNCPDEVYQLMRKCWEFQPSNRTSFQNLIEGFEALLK

Compound	Ki [1]	IC50 [2]	Ki [3]
Cn1cc(NC(=O)c2cnn3cccnc23)c(-c2cc(Oc3cccc(CN)n3)ccc2OC(F)F)n1 [Example 39, N-[3-[5-[[6-(aminomethyl)-2-pyridyl]oxy]-2-(difluoromethoxy)phenyl]-1-methyl-pyrazol-4-yl]pyrazolo[1,5-a]pyrimidine-3-carboxamide]	1.5 nM	35 nM	1.3 nM
Cn1cc(NC(=O)c2cnn3cccnc23)c(-c2cc(Oc3ccnc(CN)c3)ccc2OC(F)F)n1 [Example 40, N-[3-[5-[[2-(aminomethyl)-4-pyridyl]oxy]-2-(difluoromethoxy)phenyl]-1-methyl-pyrazol-4-yl]pyrazolo[1,5-a]pyrimidine-3-carboxamide]	0.97 nM	51 nM	0.77 nM
O=C(Nc1cn(CCN[C@H]2C[C@H](O)C2)nc1-c1cc(Oc2ccccc2)ccc1OC(F)F)c1cnn2cccnc12 [Example 43, N-[3-[2-(difluoromethoxy)-5-phenoxy-phenyl]-1-[2-[(3-hydroxycyclobutyl)amino]ethyl]pyrazol-4-yl]pyrazolo[1,5-a]pyrimidine-3-carboxamide]	0.3 nM	24 nM	0.31 nM
CC(=O)c1cc(Oc2ccc(OC(F)F)c(-c3n[nH]cc3NC(=O)c3cnn4cccnc34)c2)ccc1C [Example 44, N-[3-[5-(3-acetyl-4-methyl-phenoxy)-2-(difluoromethoxy)phenyl]-1H-pyrazol-4-yl]pyrazolo[1,5-a]pyrimidine-3-carboxamide]	0.45 nM	5.7 nM	0.24 nM
Cn1cc(NC(=O)c2cnn3cccnc23)c(-c2cc(Oc3cccc(CN(CCO)CCO)c3)ccc2OC(F)F)n1 [Example 45, N-[3-[5-[3-[[bis(2-hydroxyethyl)amino]methyl]phenoxy]-2-(difluoromethoxy)phenyl]-1-methyl-pyrazol-4-yl]pyrazolo[1,5-a]pyrimidine-3-carboxamide]	0.58 nM	34 nM	0.5 nM
Cn1cc(NC(=O)c2cnn3cccnc23)c(-c2cc(Oc3cccc(CN4CCOCC4)c3)ccc2OC(F)F)n1 [Example 46, N-[3-[2-(difluoromethoxy)-5-[3-(morpholinomethyl)phenoxy]phenyl]-1-methyl-pyrazol-4-yl]pyrazolo[1,5-a]pyrimidine-3-carboxamide]	1.5 nM	67 nM	1.6 nM
Cn1cc(NC(=O)c2cnn3cccnc23)c(-c2cc(Oc3cccc(CNCCN4CCOCC4)c3)ccc2OC(F)F)n1 [Example 47, N-[3-[2-(difluoromethoxy)-5-[3-[(2-morpholinoethylamino)methyl]phenoxy]phenyl]-1-methyl-pyrazol-4-yl]pyrazolo[1,5-a]pyrimidine-3-carboxamide]	2 nM	24 nM	1.6 nM
Cn1cc(NC(=O)c2cnn3cccnc23)c(-c2cc(Oc3cccc(CNC(CO)CO)c3)ccc2OC(F)F)n1 [Example 48, N-[3-[2-(difluoromethoxy)-5-[3-[[[2-hydroxy-1-(hydroxymethyl)ethyl]amino]methyl]phenoxy]phenyl]-1-methyl-pyrazol-4-yl]pyrazolo[1,5-a]pyrimidine-3-carboxamide]	0.76 nM	86 nM	0.64 nM
Cc1ccc(Oc2ccc(OC(F)F)c(-c3nn(C)cc3NC(=O)c3cnn4cccnc34)c2)cc1C(=O)N1CCN(C)CC1 [Example 50, N-[3-[2-(difluoromethoxy)-5-[4-methyl-3-(4-methylpiperazine-1-carbonyl)phenoxy]phenyl]-1-methyl-pyrazol-4-yl]pyrazolo[1,5-a]pyrimidine-3-carboxamide]	0.64 nM	35 nM	0.46 nM
NCc1cc(Oc2ccc(OC(F)F)c(-c3n[nH]cc3NC(=O)c3cnn4cccnc34)c2)ccc1C(F)(F)F [Example 52, N-[3-[5-[3-(aminomethyl)-4-(trifluoromethyl)phenoxy]-2-(difluoromethoxy)phenyl]-1H-pyrazol-4-yl]pyrazolo[1,5-a]pyrimidine-3-carboxamide]	3 nM	91 nM	2.3 nM
Cn1cc(NC(=O)c2cnn3cccnc23)c(-c2cc(Oc3cccc(C4(O)CNC4)c3)ccc2OC(F)F)n1 [Example 53]	0.32 nM	210 nM	0.27 nM
Cc1ccc(Oc2ccc(OC(F)F)c(-c3nn(C)cc3NC(=O)c3cnn4cccnc34)c2)cc1C(=O)N1CCNCC1 [Example 54, N-[3-[2-(difluoromethoxy)-5-[4-methyl-3-(piperazine-1-carbonyl)phenoxy]phenyl]-1-methyl-pyrazol-4-yl]pyrazolo[1,5-a]pyrimidine-3-carboxamide]	0.43 nM	58 nM	0.42 nM
CN(C)C(=O)CNCc1cccc(Oc2ccc(OC(F)F)c(-c3nn(C)cc3NC(=O)c3cnn4cccnc34)c2)c1 [Example 55, N-[3-[2-(difluoromethoxy)-5-[3-[[[2-(dimethylamino)-2-oxo-ethyl]amino]methyl]phenoxy]phenyl]-1-methyl-pyrazol-4-yl]pyrazolo[1,5-a]pyrimidine-3-carboxamide]	0.9 nM	48 nM	0.58 nM
O=C(Nc1cn(C2COC2)nc1-c1cc(Oc2ccccc2)ccc1OC(F)F)c1cnn2cccnc12 [Example 56, N-[3-[2-(difluoromethoxy)-5-phenoxy-phenyl]-1-(oxetan-3-yl)pyrazol-4-yl]pyrazolo[1,5-a]pyrimidine-3-carboxamide]	0.35 nM	15 nM	0.25 nM
Cn1cc(NC(=O)c2cnn3cccnc23)c(-c2cc(Oc3cccc(-n4nccc4CN)c3)ccc2OC(F)F)n1 [Example 57, N-[3-[5-[3-[5-(aminomethyl)pyrazol-1-yl]phenoxy]-2-(difluoromethoxy)phenyl]-1-methyl-pyrazol-4-yl]pyrazolo[1,5-a]pyrimidine-3-carboxamide]	0.91 nM	37 nM	0.69 nM
CN(CC(=O)N(C)C)Cc1cccc(Oc2ccc(OC(F)F)c(-c3nn(C)cc3NC(=O)c3cnn4cccnc34)c2)c1 [Example 60]	0.81 nM	35 nM	0.75 nM
Cn1cc(NC(=O)c2cnn3cccnc23)c(-c2cc(Oc3ccc(CN4CCOCC4)cc3)ccc2OC(F)F)n1 [Example 61, N-[3-[2-(difluoromethoxy)-5-[4-(morpholinomethyl)phenoxy]phenyl]-1-methyl-pyrazol-4-yl]pyrazolo[1,5-a]pyrimidine-3-carboxamide]	5.1 nM	130 nM	2.9 nM
CN(C)C(=O)c1cccc(Oc2ccc(OC(F)F)c(-c3nn(C)cc3NC(=O)c3cnn4cccnc34)c2)c1 [Example 62, N-[3-[2-(difluoromethoxy)-5-[3-(dimethylcarbamoyl)phenoxy]phenyl]-1-methyl-pyrazol-4-yl]pyrazolo[1,5-a]pyrimidine-3-carboxamide]	0.35 nM	14 nM	0.24 nM
Cn1cc(NC(=O)c2cnn3cccnc23)c(-c2cc(Oc3ccc4c(c3)CCNC4)ccc2OC(F)F)n1 [Example 63, N-[3-[2-(difluoromethoxy)-5-(1,2,3,4-tetrahydroisoquinolin-6-yloxy)phenyl]-1-methyl-pyrazol-4-yl]pyrazolo[1,5-a]pyrimidine-3-carboxamide]	1.7 nM	47 nM	0.42 nM
CN1CCc2cc(Oc3ccc(OC(F)F)c(-c4nn(C)cc4NC(=O)c4cnn5cccnc45)c3)ccc2C1 [Example 64, N-[3-[2-(difluoromethoxy)-5-[(2-methyl-3,4-dihydro-1H-isoquinolin-6-yl)oxy]phenyl]-1-methyl-pyrazol-4-yl]pyrazolo[1,5-a]pyrimidine-3-carboxamide]	1.7 nM	59 nM	0.57 nM
NCc1ccnn1-c1cccc(Oc2ccc(OC(F)F)c(-c3n[nH]cc3NC(=O)c3cnn4cccnc34)c2)c1 [Example 65, N-[3-[5-[3-[5-(aminomethyl)pyrazol-1-yl]phenoxy]-2-(difluoromethoxy)phenyl]-1H-pyrazol-4-yl]pyrazolo[1,5-a]pyrimidine-3-carboxamide]	0.85 nM	120 nM	0.63 nM
CNCc1ccnn1-c1cccc(Oc2ccc(OC(F)F)c(-c3nn(C)cc3NC(=O)c3cnn4cccnc34)c2)c1 [Example 66, N-[3-[2-(difluoromethoxy)-5-[3-[5-(methylaminomethyl)pyrazol-1-yl]phenoxy]phenyl]-1-methyl-pyrazol-4-yl]pyrazolo[1,5-a]pyrimidine-3-carboxamide]	3.9 nM	130 nM	3.6 nM
CC(C)(C#N)c1ccc(Oc2ccc(OC(F)F)c(-c3n[nH]cc3NC(=O)c3cnn4cccnc34)c2)cc1 [Example 67, N-[3-[5-[4-(1-cyano-1-methyl-ethyl)phenoxy]-2-(difluoromethoxy)phenyl]-1H-pyrazol-4-yl]pyrazolo[1,5-a]pyrimidine-3-carboxamide]	2.1 nM	25 nM	1.2 nM
Cn1cc(NC(=O)c2cnn3cccnc23)c(-c2cc(Oc3ccc4c(c3)CN(C3COC3)CC4)ccc2OC(F)F)n1 [Example 69, N-[3-[2-(difluoromethoxy)-5-[[2-(oxetan-3-yl)-3,4-dihydro-1H-isoquinolin-7-yl]oxy]phenyl]-1-methyl-pyrazol-4-yl]pyrazolo[1,5-a]pyrimidine-3-carboxamide]	1.3 nM	37 nM	0.53 nM

Source: patent US12528812B2 (Genentech, Inc., priority 2020, dated 2026)
